Experiments:
rats = assay: Effect of Captisol premedication on the death rate of Althesin
[1] = for time of continuous stirring until it went into solution: 10 mg/ml in 13% w/v sulfobutyl ether β-cyclodextrin in 0.9% saline; for dissolution at a concentration of 10 mg/ml: 13% w/v sulfobutyl ether β-cyclodextrin in 0.9% saline
[2] = SBECD7 (13% solution) premed 5.25 mls/kg 60 s before Althesin @ 16 x AD95 (52.5 mg/kg alphaxalone iv), 10 rats

In the case of “(7) sulfobutyl ether β-cyclodextrin [SBECD7]”, the “n did not die” value (rats; [2]) is reported as 8, the n died (rats; [2]) is reported as 2 and the “effect on mortality caused by alphaxalone as Althesin” value (rats; premedication 60 s before 52.5 mg/kg alphaxalone as Althesin) is reported as “statistically and clinically significant reduction in the mortality”.

In the case of `C[C@]12CC[C@@H](O)C[C@@H]1CC[C@H]1[C@@H]3CC[C@H](C(=O)CO)[C@@]3(C)CC(=O)[C@@H]12` [alphadolone], the “time of continuous stirring until it went into solution” value [1] is reported as 4 h and the “dissolution at a concentration of 10 mg/ml” value [1] is reported as “dissolved completely”.

In the case of `CC(=O)[C@H]1CC[C@H]2[C@@H]3CC[C@@H]4C[C@H](O)CC[C@]4(C)[C@H]3CC[C@]12C` [pregnanolone], the “time of continuous stirring until it went into solution” value [1] is reported as 4 h and the “dissolution at a concentration of 10 mg/ml” value [1] is reported as “dissolved incompletely”.

Source: US8975245B2, “Anaesthetic formulation” (Drawbridge Pharmaceuticals Pty Ltd, priority 2010, dated 2015)
